Results taken from ChEMBL document CHEMBL5154662, “Discovery of BP3 as an efficacious proteolysis targeting chimera (PROTAC) degrader of HSP90 for treating breast cancer” (Eur J Med Chem, 2022).
Active and inactive are the calls of the source. The calls are words filed in the database; no cut-off is given here.

Experiments:
[1] = tested on: MDA-MB-231; experiment: Antiproliferative activity against human MDA-MB-231 cells assessed as inhibition of cell proliferation incubated for 72 hrs by MTT assay; format: functional, cell-based; settings: MDA-MB-231, 72 h
[2] = tested on: MCF7; experiment: Antiproliferative activity against human MCF-7 cells assessed as inhibition of cell proliferation incubated for 72 hrs by MTT assay; format: functional, cell-based; settings: MCF7, 72 h
[3] = tested on: 4T1; experiment: Antitumor activity against female BALB/c mouse xenografted with 4T1 cells assessed as tumor growth inhibition at 60 mg/kg, ip administered daily for 12 days relative to control; format: functional; settings: 4T1, 288 h, time 12 day, read-out: TGI
[4] = tested on: MCF7; experiment: Anticancer activity against human MCF7 cells assessed as inhibition of colony formation at 2 to 10 uM measured after 48 hrs by crystal violet staining based assay; format: functional, cell-based; settings: dose 2-10 µM, DDE = dose-dependent effect
[5] = tested on: 4T1; experiment: Anticancer activity against mouse 4T1 cells assessed as inhibition of cell proliferation measured after 72 hrs by MTT assay; format: functional, cell-based; settings: 4T1, 72 h
[6] = tested on: MDA-MB-468; experiment: Anticancer activity against human MDA-MB-468 cells assessed as inhibition of cell proliferation measured after 72 hrs by MTT assay; format: functional, cell-based; settings: MDA-MB-468, 72 h
[7] = biological target: Heat shock protein HSP90 (Homo sapiens, UniProt P07900+P08238); experiment: Binding affinity to HSP90 (unknown origin) upto 250 uM by BLI assay; format: protein assay
[8] = AUC in rat at 15 mg/kg, ip measured after 8 hrs; format: ADME, organism-based; parameters: dose 15 mg/kg, time 8 hrs, route ip; settings: in vivo
[9] = biological target: T1, Protein cereblon/Heat shock protein HSP 90-alpha/Heat shock protein HSP 90-beta (Homo sapiens, UniProt P07900+P08238+Q96SW2); experiment: Protac activity at CRBN/HSP90 in human MCF7 cells assessed as reduction in HSP90 protein expression level at 2 uM measured after 6 hrs by western blot analysis; format: cell-based
[10] = Half life in rat at 15 mg/kg, ip measured after 8 hrs; format: ADME, organism-based; settings: in vivo
[11] = biological target: T1, Protein cereblon/Heat shock protein HSP 90-alpha/Heat shock protein HSP 90-beta; experiment: Protac activity at CRBN/HSP90 in human MCF7 cells assessed as maximum degradation of HSP90 measured after 6 hrs by western blot analysis relative to control; format: cell-based
[12] = Toxicity in BALB/c mouse assessed as body weight loss at 40 mg/kg, ip administered daily for 12 days measured once every 3 days; format: organism-based; settings: in vivo, 288 h, time 12 day
[13] = biological target: T1, Protein cereblon/Heat shock protein HSP 90-alpha/Heat shock protein HSP 90-beta; experiment: Protac activity at CRBN/HSP90 in human MCF7 cells assessed as reduction in AKT protein expression level at 2 uM measured after 6 hrs by western blot analysis; format: cell-based
[14] = biological target: Heat shock protein HSP 90-alpha (Homo sapiens) (UniProt P07900); experiment: Degradation of HSP90alpha in human MCF7 cells at 2 uM measured after 6 hrs by western blot analysis; format: cell-based
[15] = tested on: 4T1; experiment: Antitumor activity against female BALB/c mouse xenografted with 4T1 cells assessed as reduction on tumor formation at 40 mg/kg, ip administered daily for 12 days; format: functional, organism-based; settings: time 12.0 day
[16] = Toxicity in BALB/c mouse assessed as death at 40 mg/kg, ip administered daily for 12 days; format: organism-based; settings: in vivo, 288 h, time 12 day
[17] = tested on: 4T1; experiment: Antitumor activity against female BALB/c mouse xenografted with 4T1 cells assessed as tumor growth inhibition at 40 mg/kg, ip administered daily for 12 days relative to control; format: functional; settings: 4T1, 288 h, time 12 day, read-out: TGI
[18] = biological target: T1, Protein cereblon/Heat shock protein HSP 90-alpha/Heat shock protein HSP 90-beta; experiment: Protac activity at CRBN/HSP90 in human MCF7 cells assessed as reduction in HSP90 protein expression level at 2 uM followed by cycloheximide addition measured upto 12 hrs by western blot analysis; format: cell-based
[19] = Tmax in rat at 15 mg/kg, ip measured after 8 hrs; format: ADME, organism-based; settings: in vivo
[20] = Cmax in rat at 15 mg/kg, ip measured after 8 hrs; format: ADME, organism-based; parameters: time 8 hrs, dose 15 mg/kg, route ip; settings: in vivo
[21] = biological target: T1, Protein cereblon/Heat shock protein HSP 90-alpha/Heat shock protein HSP 90-beta; experiment: Protac activity at CRBN/HSP90 in human MCF7 cells assessed as reduction in HSP90 mRNA expression level at 2 uM followed by cycloheximide addition measured upto 12 hrs by qRT-PCR analysis; format: cell-based
[22] = biological target: T1, Protein cereblon/Heat shock protein HSP 90-alpha/Heat shock protein HSP 90-beta; experiment: Protac activity at CRBN/HSP90 in human MCF7 cells assessed as reduction in p53 protein expression level at 2 uM measured after 6 hrs by western blot analysis; format: cell-based
[23] = biological target: T1, Protein cereblon/Heat shock protein HSP 90-alpha/Heat shock protein HSP 90-beta; experiment: Protac activity at CRBN/HSP90 in human MCF7 cells assessed as HSP90 degradation measured after 6 hrs by western blot analysis; format: cell-based
[24] = AUCinfinity in rat at 15 mg/kg, ip measured after 8 hrs; format: ADME, organism-based; parameters: dose 15 mg/kg, time 8 hrs, route ip; settings: in vivo
[25] = tested on: 4T1; experiment: Antitumor activity against female BALB/c mouse xenografted with 4T1 cells assessed as reduction on tumor weight at 40 mg/kg, ip administered daily for 12 days; format: functional, organism-based; settings: time 12.0 day

T1 sequence (P08238 whole entry, other chains not shown): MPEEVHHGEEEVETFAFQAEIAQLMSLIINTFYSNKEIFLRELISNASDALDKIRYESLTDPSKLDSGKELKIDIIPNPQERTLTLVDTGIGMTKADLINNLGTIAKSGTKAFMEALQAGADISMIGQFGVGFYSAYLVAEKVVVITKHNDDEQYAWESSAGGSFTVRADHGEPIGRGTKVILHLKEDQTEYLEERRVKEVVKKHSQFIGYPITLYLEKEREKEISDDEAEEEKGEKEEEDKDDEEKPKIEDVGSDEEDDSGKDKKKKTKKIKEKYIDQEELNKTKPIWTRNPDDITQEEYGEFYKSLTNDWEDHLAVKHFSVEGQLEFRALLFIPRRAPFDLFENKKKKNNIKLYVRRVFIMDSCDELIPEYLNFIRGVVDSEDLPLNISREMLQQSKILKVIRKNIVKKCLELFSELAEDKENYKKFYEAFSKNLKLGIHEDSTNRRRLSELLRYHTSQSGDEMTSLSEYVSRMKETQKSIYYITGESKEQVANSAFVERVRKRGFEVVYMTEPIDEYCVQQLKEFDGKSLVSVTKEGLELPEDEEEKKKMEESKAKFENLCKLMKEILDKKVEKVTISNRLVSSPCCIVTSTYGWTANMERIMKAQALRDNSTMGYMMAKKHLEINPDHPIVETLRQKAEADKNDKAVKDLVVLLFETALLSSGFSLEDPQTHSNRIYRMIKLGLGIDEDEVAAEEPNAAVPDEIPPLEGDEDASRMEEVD
T1 sequence (Q96SW2 whole entry, other chains not shown): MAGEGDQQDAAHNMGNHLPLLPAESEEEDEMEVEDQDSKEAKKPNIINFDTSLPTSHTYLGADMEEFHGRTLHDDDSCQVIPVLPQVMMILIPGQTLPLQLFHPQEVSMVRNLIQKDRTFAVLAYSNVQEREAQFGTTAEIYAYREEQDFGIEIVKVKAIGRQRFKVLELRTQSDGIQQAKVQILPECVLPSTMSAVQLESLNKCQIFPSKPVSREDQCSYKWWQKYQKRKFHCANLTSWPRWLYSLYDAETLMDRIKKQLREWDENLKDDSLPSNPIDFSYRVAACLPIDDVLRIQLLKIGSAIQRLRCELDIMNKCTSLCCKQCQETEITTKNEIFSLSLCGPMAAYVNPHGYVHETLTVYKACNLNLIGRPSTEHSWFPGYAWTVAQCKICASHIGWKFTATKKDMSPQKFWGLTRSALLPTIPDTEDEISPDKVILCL

Molecule `COc1c(C)cnc(Cn2cc(C#CCCCCNc3cccc4c3C(=O)N(C3CCC(=O)NC3=O)C4=O)c3c(Cl)nc(N)nc32)c1C` (configuration not stated) has an IC50 [1] of 2.2 µM and an IC50 [2] of 0.25 µM.

With `COc1c(C)cnc(Cn2cnc3c(Cl)nc(N)nc32)c1C` [BIIB021] the IC50 [1] was 7.72 µM, the inhibition in vivo at 60 mg/kg [3] was 31.8% and the Activity [4] was “Dde”. For the same molecule, the IC50 [2] was 1.12 µM, the IC50 [5] was 0.55 µM and the IC50 [6] was 2.52 µM.

For `COc1cc(C(=O)NCCOCCOCCOCC#Cc2cn(Cc3ncc(C)c(OC)c3C)c3nc(N)nc(Cl)c23)ccc1NC(=O)[C@@H]1N[C@@H](CC(C)(C)C)[C@](C#N)(c2ccc(Cl)cc2F)[C@H]1c1cccc(Cl)c1F`, the IC50 [1] was greater than 100 µM and the IC50 [2] was greater than 100 µM.

For `COc1c(C)cnc(Cn2cc(C#CCOCCOCCOCCNc3cccc4c3C(=O)N(C3CCC(=O)NC3=O)C4=O)c3c(Cl)nc(N)nc32)c1C` (configuration not stated), the IC50 [1] was 4.85 µM and the IC50 [2] was 2.24 µM.

`COc1c(C)cnc(Cn2cc(C#CCOCCOCCOCCOCCNc3cccc4c3C(=O)N(C3CCC(=O)NC3=O)C4=O)c3c(Cl)nc(N)nc32)c1C` (configuration not stated) gave an IC50 [1] of 9.48 µM and an IC50 [2] of 6.12 µM.

In the case of `COc1c(C)cnc(Cn2cc(C#CCCNc3cccc4c3C(=O)N(C3CCC(=O)N(C)C3=O)C4=O)c3c(Cl)nc(N)nc32)c1C` (configuration not stated), the IC50 [1] is reported as 7.77 µM and the IC50 [2] is reported as 2.46 µM.

Work on `COc1c(C)cnc(Cn2cc(C#CCOCCOCCOCCOCCOCCNc3cccc4c3C(=O)N(C3CCC(=O)NC3=O)C4=O)c3c(Cl)nc(N)nc32)c1C` (configuration not stated) yielded an IC50 [1] of 3.87 µM and an IC50 [2] of 5.63 µM.

In the case of `COc1c(C)cnc(Cn2cc(C#CCCCNc3cccc4c3C(=O)N(C3CCC(=O)NC3=O)C4=O)c3c(Cl)nc(N)nc32)c1C` (configuration not stated), the IC50 [1] is reported as 5.2 µM and the IC50 [2] is reported as 1.45 µM.

`Nc1cccc2c1C(=O)N(C1CCC(=O)NC1=O)C2=O` (configuration not stated) [POMALIDOMIDE] showed an IC50 [1] greater than 100 µM and an IC50 [2] greater than 100 µM.

Work on `COc1cc(C(=O)NCCCCC#Cc2cn(Cc3ncc(C)c(OC)c3C)c3nc(N)nc(Cl)c23)ccc1NC(=O)[C@@H]1N[C@@H](CC(C)(C)C)[C@](C#N)(c2ccc(Cl)cc2F)[C@H]1c1cccc(Cl)c1F` yielded an IC50 [1] greater than 100 µM and an IC50 [2] greater than 100 µM.

Work on `COc1cc(C(=O)NCCOCC#Cc2cn(Cc3ncc(C)c(OC)c3C)c3nc(N)nc(Cl)c23)ccc1NC(=O)[C@@H]1N[C@@H](CC(C)(C)C)[C@](C#N)(c2ccc(Cl)cc2F)[C@H]1c1cccc(Cl)c1F` yielded an IC50 [1] of 65.9 µM and an IC50 [2] of 71.7 µM.

Molecule `COc1cc(C(=O)NCCOCCOCC#Cc2cn(Cc3ncc(C)c(OC)c3C)c3nc(N)nc(Cl)c23)ccc1NC(=O)[C@@H]1N[C@@H](CC(C)(C)C)[C@](C#N)(c2ccc(Cl)cc2F)[C@H]1c1cccc(Cl)c1F` has an IC50 [1] of 72.1 µM and an IC50 [2] of 32.9 µM.

For `COc1cc(C(=O)NCC#Cc2cn(Cc3ncc(C)c(OC)c3C)c3nc(N)nc(Cl)c23)ccc1NC(=O)[C@@H]1N[C@@H](CC(C)(C)C)[C@](C#N)(c2ccc(Cl)cc2F)[C@H]1c1cccc(Cl)c1F`, the IC50 [1] was greater than 100 µM and the IC50 [2] was 20.9 µM.

Work on `COc1c(C)cnc(Cn2cc(C#CCOCCOCCNc3cccc4c3C(=O)N(C3CCC(=O)NC3=O)C4=O)c3c(Cl)nc(N)nc32)c1C` (configuration not stated) yielded an IC50 [1] of 0.76 µM and an IC50 [2] of 0.98 µM.

For `COc1c(C)cnc(Cn2cc(C#CCCNc3cccc4c3C(=O)N(C3CCC(=O)NC3=O)C4=O)c3c(Cl)nc(N)nc32)c1C` (configuration not stated), the IC50 [1] was 3.53 µM, the Kd [7] was 1.18 10^-4M and the AUC [8] was 1360 ng·h/mL. For the same molecule, the Activity [9] was “Active”, the half-life [10] was 4.5 h and the Emax [11] was 83.4%. The Activity [12] was 19.7%, the Activity [13] was “Active” and the Activity [14] was “Active”. The Activity [4] was “Dde”, the Activity [15] was “Active” and the Activity [16] was “Non-Toxic”. For the same molecule, the inhibition in vivo at 40 mg/kg [17] was 76.4%, the Activity [18] was “Active” and the IC50 [2] was 0.63 µM. The Tmax [19] was 1.85 h, the Cmax [20] was 260 ng/mL and the Activity [21] was “Active”. For the same molecule, the Activity [22] was “Active”, the DC50 [23] was 0.99 µM and the IC50 [5] was 0.61 µM. The AUC [24] was 2080 ng·h/mL, the Activity [25] was “Active” and the IC50 [6] was 2.95 µM.

`COc1cc(C(=O)NCCC#Cc2cn(Cc3ncc(C)c(OC)c3C)c3nc(N)nc(Cl)c23)ccc1NC(=O)[C@@H]1N[C@@H](CC(C)(C)C)[C@](C#N)(c2ccc(Cl)cc2F)[C@H]1c1cccc(Cl)c1F` showed an IC50 [1] greater than 100 µM and an IC50 [2] of 37.9 µM.

With `COc1cc(C(=O)NCCCC#Cc2cn(Cc3ncc(C)c(OC)c3C)c3nc(N)nc(Cl)c23)ccc1NC(=O)[C@@H]1N[C@@H](CC(C)(C)C)[C@](C#N)(c2ccc(Cl)cc2F)[C@H]1c1cccc(Cl)c1F` the IC50 [1] was greater than 100 µM and the IC50 [2] was 97.3 µM.

Work on `COc1cc(C(=O)NCCOCCOCCOCCOCCOCC#Cc2cn(Cc3ncc(C)c(OC)c3C)c3nc(N)nc(Cl)c23)ccc1NC(=O)[C@@H]1N[C@@H](CC(C)(C)C)[C@](C#N)(c2ccc(Cl)cc2F)[C@H]1c1cccc(Cl)c1F` yielded an IC50 [1] greater than 100 µM and an IC50 [2] greater than 100 µM.

`COc1c(C)cnc(Cn2cc(C#CCOCCNc3cccc4c3C(=O)N(C3CCC(=O)NC3=O)C4=O)c3c(Cl)nc(N)nc32)c1C` (configuration not stated) gave an IC50 [1] of 0.44 µM and an IC50 [2] of 0.19 µM.

Molecule `COc1c(C)cnc(Cn2cc(C#CCNc3cccc4c3C(=O)N(C3CCC(=O)NC3=O)C4=O)c3c(Cl)nc(N)nc32)c1C` (configuration not stated) has an IC50 [1] of 20.6 µM and an IC50 [2] of 1.98 µM.

In the case of `COc1c(C)cnc(Cn2cc(C#CCOCCOCCOCCOCCOCCOCCNc3cccc4c3C(=O)N(C3CCC(=O)NC3=O)C4=O)c3c(Cl)nc(N)nc32)c1C` (configuration not stated), the IC50 [1] is reported as 3.88 µM and the IC50 [2] is reported as 3.14 µM.

Molecule `COc1cc(C(=O)NCCOCCOCCOCCOCC#Cc2cn(Cc3ncc(C)c(OC)c3C)c3nc(N)nc(Cl)c23)ccc1NC(=O)[C@@H]1N[C@@H](CC(C)(C)C)[C@](C#N)(c2ccc(Cl)cc2F)[C@H]1c1cccc(Cl)c1F` has an IC50 [1] greater than 100 µM and an IC50 [2] greater than 100 µM.

With `COc1cc(C(=O)NCCOCCOCCOCCOCCOCCOCC#Cc2cn(Cc3ncc(C)c(OC)c3C)c3nc(N)nc(Cl)c23)ccc1NC(=O)[C@@H]1N[C@@H](CC(C)(C)C)[C@](C#N)(c2ccc(Cl)cc2F)[C@H]1c1cccc(Cl)c1F` the IC50 [1] was greater than 100 µM and the IC50 [2] was greater than 100 µM.
